This passage reports IC50 and Ki results from ChEMBL document CHEMBL1909046, “DrugMatrix in vitro pharmacology data”.

Assay [1] can be described thus: DRUGMATRIX: Phosphodiesterase PDE4 enzyme inhibition (substrate: [3H]cAMP + cAMP). To be noted: u-937; Not Active = under 50% inhibition at 10 µM.
The target in assay [2] is Beta-1 adrenergic receptor (Homo sapiens, UniProt P08588). Nature of the assay: DRUGMATRIX: Adrenergic beta1 radioligand binding (ligand: [125I] Cyanopindolol). It counts as cell membranes, CHO-K1, Membrane. To be noted: Not Active = under 50% inhibition at 10 µM.
A further assay deals with Melanocortin receptor 4 (Homo sapiens, UniProt P32245). It counts as cell membranes, HEK293, Membrane. To be noted: hek293.
Assay [3] addresses T1, Muscarinic acetylcholine receptor M4 (Homo sapiens, UniProt P08173).
T1 sequence (P08173 whole entry): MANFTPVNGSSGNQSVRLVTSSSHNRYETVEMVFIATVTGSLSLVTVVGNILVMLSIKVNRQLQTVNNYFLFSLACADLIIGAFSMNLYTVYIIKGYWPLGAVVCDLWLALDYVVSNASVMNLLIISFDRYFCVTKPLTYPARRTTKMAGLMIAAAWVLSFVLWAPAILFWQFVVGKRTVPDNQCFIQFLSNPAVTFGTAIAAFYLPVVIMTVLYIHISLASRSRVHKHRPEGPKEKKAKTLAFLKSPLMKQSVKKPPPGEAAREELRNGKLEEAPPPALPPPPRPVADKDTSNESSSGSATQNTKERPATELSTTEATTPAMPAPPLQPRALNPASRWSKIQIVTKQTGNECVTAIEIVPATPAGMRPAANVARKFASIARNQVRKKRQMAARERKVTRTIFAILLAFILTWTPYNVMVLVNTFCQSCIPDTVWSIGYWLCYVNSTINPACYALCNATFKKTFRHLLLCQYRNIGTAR
Type of assay: cell membranes, CHO-K1, Membrane.

Assay [4] addresses T2, Cholecystokinin receptor type A (Homo sapiens, UniProt P32238).
T2 sequence (P32238 whole entry): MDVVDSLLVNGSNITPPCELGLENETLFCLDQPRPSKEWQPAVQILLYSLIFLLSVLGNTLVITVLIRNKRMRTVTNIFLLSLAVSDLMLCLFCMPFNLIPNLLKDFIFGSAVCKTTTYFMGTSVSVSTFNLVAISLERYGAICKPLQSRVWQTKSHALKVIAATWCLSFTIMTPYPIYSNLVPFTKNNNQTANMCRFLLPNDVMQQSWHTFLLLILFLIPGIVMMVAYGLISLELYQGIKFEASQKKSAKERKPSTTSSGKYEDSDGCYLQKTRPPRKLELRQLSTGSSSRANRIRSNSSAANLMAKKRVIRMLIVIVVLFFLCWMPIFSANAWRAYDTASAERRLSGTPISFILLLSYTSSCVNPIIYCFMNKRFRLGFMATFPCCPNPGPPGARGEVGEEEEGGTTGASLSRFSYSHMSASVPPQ
Type of assay: cell membranes, Membrane. To be noted: 1321-n1.

Chain of Melanocortin receptor 4 (P32245 whole entry): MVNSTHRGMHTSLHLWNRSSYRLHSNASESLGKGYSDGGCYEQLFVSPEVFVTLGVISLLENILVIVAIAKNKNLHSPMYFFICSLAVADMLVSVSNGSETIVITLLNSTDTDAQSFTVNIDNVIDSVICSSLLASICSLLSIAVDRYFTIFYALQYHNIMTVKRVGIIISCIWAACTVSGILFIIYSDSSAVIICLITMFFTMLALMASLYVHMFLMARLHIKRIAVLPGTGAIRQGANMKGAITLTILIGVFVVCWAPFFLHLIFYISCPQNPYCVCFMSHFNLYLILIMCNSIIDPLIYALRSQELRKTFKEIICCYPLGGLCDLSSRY
Chain of Beta-1 adrenergic receptor (P08588 whole entry): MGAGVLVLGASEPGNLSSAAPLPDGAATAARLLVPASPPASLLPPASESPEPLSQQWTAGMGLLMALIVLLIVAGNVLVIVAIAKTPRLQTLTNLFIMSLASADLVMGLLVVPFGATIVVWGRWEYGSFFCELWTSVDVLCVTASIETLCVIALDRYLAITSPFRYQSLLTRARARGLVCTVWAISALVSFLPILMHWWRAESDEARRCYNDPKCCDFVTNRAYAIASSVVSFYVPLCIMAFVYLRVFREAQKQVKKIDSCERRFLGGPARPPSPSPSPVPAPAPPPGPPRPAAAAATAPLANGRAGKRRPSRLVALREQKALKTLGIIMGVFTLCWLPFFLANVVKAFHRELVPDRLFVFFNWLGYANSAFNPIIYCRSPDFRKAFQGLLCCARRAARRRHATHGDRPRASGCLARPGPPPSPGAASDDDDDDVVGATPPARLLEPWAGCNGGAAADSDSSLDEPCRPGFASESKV

By IC50 is commonly meant the point on the concentration scale where inhibition reaches its midpoint. For orientation: Ki means the equilibrium dissociation constant of an inhibitor or competing ligand from its target. `CNNCc1ccc(C(=O)NC(C)C)cc1` [PROCARBAZINE]: the IC50 entry (in assay [1]; in assay [2] (cho-k1); against Melanocortin receptor 4; in assay [3] (cho-k1); in assay [4]) was “Not Active” in each case. The Ki entry in assay [1] is listed as “Not Active”.
On to `CN(C)CCCN1c2ccccc2Sc2ccc(Cl)cc21` [CHLORPROMAZINE], for which the IC50 result in assay [1], in assay [2] (cho-k1) and in assay [4] was “Not Active” in each case. Further, the Ki result in assay [1] is “Not Active”.
Turning to `CC(C)(C)NCC(O)c1cc(Cl)c(N)c(Cl)c1` (configuration not stated) [CLENBUTEROL], the IC50 entry is “Not Active” in assay [1]; 0.12 µM in assay [2] (read-out: IC50); “Not Active” against Melanocortin receptor 4; “Not Active” in assay [3] (cho-k1); “Not Active” in assay [4]. The Ki result was “Not Active” in assay [1] and 0.069 µM in assay [2] (read-out: Ki).
In the case of `C[C@](N)(Cc1ccc(O)c(O)c1)C(=O)O` [METHYLDOPA], the IC50 result (in assay [1]; in assay [2] (cho-k1); on Melanocortin receptor 4; in assay [3] (cho-k1); in assay [4]) was “Not Active” each time. Also, in assay [1], the Ki entry is reported as “Not Active”.
With `Cc1ccccc1N1C(=O)c2cc(S(N)(=O)=O)c(Cl)cc2NC1C` (configuration not stated) [METOLAZONE], the IC50 result (in assay [1]; in assay [2] (cho-k1); at Melanocortin receptor 4; in assay [3] (cho-k1); in assay [4]) was “Not Active” in each case. Moreover, in assay [1], the Ki entry is given as “Not Active”.
On to `C[C@]12CC[C@@H]3c4ccc(O)cc4CC[C@H]3[C@@H]1CCC2=O` [ESTRONE], for which the IC50 result (in assay [1]; in assay [2] (cho-k1); against Melanocortin receptor 4; in assay [3] (cho-k1); in assay [4]) was “Not Active” each time. For the same compound, the Ki result in assay [1] is on record as “Not Active”.
In the case of `NC1=NC(=O)C(c2ccccc2)O1` (configuration not stated) [PEMOLINE], the IC50 result (in assay [1]; in assay [2] (cho-k1); at Melanocortin receptor 4; in assay [3] (cho-k1); in assay [4]) was “Not Active” throughout. Further, the Ki entry in assay [1] was “Not Active”.
As for `C[C@H]1c2cccc(O)c2C(=O)C2=C(O)[C@]3(O)C(=O)C(C(N)=O)=C(O)[C@@H](N(C)C)[C@@H]3[C@@H](O)[C@@H]21.O` [DOXYCYCLINE], the IC50 entry (in assay [1]; in assay [2] (cho-k1); at Melanocortin receptor 4; in assay [3] (cho-k1); in assay [4]) was “Not Active” in each case. For the same compound, the Ki result in assay [1] was “Not Active”.
Take `C[C@H]1O[C@@H](O[C@H]2[C@@H](O)C[C@H](O[C@H]3[C@@H](O)C[C@H](O[C@H]4CC[C@@]5(C)[C@H](CC[C@@H]6[C@@H]5C[C@@H](O)[C@]5(C)[C@@H](C7=CC(=O)OC7)CC[C@]65O)C4)O[C@@H]3C)O[C@@H]2C)C[C@H](O)[C@@H]1O` [DIGOXIN]: the IC50 result (in assay [1]; in assay [2] (cho-k1); against Melanocortin receptor 4; in assay [3] (cho-k1); in assay [4]) was “Not Active” in each case. Further, in assay [1], the Ki entry is given as “Not Active”.
As for `O=c1oc2ccccc2c(O)c1Cc1c(O)c2ccccc2oc1=O` [DICUMAROL], the IC50 entry (in assay [1]; in assay [2] (cho-k1); against Melanocortin receptor 4; in assay [3] (cho-k1); in assay [4]) was “Not Active” throughout. In addition, the inhibitory constant (Ki) result in assay [1] was “Not Active”.
Turning to `Nc1nc(N)nc(-c2cc(Cl)ccc2Cl)n1.O=C(O)/C=C\C(=O)O` [IRSOGLADINE MALEATE], the 50% inhibitory concentration (IC50) result (in assay [1]; on Melanocortin receptor 4; in assay [3] (cho-k1); in assay [4]) was “Not Active” throughout. Further, the Ki result in assay [1] is “Not Active”.
`O=c1[nH]c(=O)n([C@H]2C[C@H](O)[C@@H](CO)O2)cc1I` [IDOXURIDINE]: the IC50 result (in assay [1]; in assay [2] (cho-k1); at Melanocortin receptor 4; in assay [3] (cho-k1); in assay [4]) was “Not Active” throughout. The inhibition constant Ki result in assay [1] is reported as “Not Active”.
On to `CC(NC(C)(C)C)C(=O)c1cccc(Cl)c1` (configuration not stated) [BUPROPION], for which the IC50 result (in assay [1]; in assay [2] (cho-k1); on Melanocortin receptor 4; in assay [3] (cho-k1); in assay [4]) was “Not Active” each time. The Ki result in assay [1] is reported as “Not Active”.
On to `CCCC1O[C@@H]2C[C@H]3[C@@H]4CCC5=CC(=O)C=C[C@]5(C)[C@H]4[C@@H](O)C[C@]3(C)[C@]2(C(=O)CO)O1` (some centres not stated) [BUDESONIDE], for which the IC50 result (in assay [1]; in assay [2] (cho-k1); at Melanocortin receptor 4; in assay [3] (cho-k1); in assay [4]) was “Not Active” each time. Further, in assay [1], the Ki result is “Not Active”.
Take `COCCc1ccc(OCC(O)CNC(C)C)cc1` (configuration not stated) [METOPROLOL]: the IC50 result (in assay [1]; at Melanocortin receptor 4; in assay [3] (cho-k1); in assay [4]) was “Not Active” in each case. Moreover, the Ki entry in assay [1] is “Not Active”.
`CN(C)CCCN1c2ccccc2Sc2ccccc21` [PROMAZINE]: the IC50 result in assay [1] was “Not Active”; in assay [2] (cho-k1) it was “Not Active”; against Melanocortin receptor 4, “Not Active”; in assay [3] (read-out: IC50), 0.299 µM; in assay [4], “Not Active”. Besides, the figures for the inhibitory constant (Ki) result in assay [1] and in assay [3] (read-out: Ki) were “Not Active” and 0.042 µM, respectively.
For `CN(C)c1nc(N(C)C)nc(N(C)C)n1` [ALTRETAMINE], the IC50 result (in assay [1]; in assay [2] (cho-k1); against Melanocortin receptor 4; in assay [3] (cho-k1); in assay [4]) was “Not Active” in each case. For the same compound, the Ki entry in assay [1] was “Not Active”.
As to `COc1cc2c3cc1Oc1cc(ccc1O)C[C@@H]1c4c(cc(OC)c(O)c4Oc4ccc(cc4)C[C@@H]3N(C)CC2)CC[N+]1(C)C.[Cl-]`, the IC50 entry (in assay [1]; in assay [2] (cho-k1); against Melanocortin receptor 4; in assay [3] (cho-k1); in assay [4]) was “Not Active” in each case. The Ki entry in assay [1] was “Not Active”.
In the case of `CCCCc1nc(Cl)c(CO)n1Cc1ccc(-c2ccccc2-c2nnn[nH]2)cc1` [LOSARTAN], the IC50 result (in assay [1]; in assay [2] (cho-k1); against Melanocortin receptor 4; in assay [3] (cho-k1); in assay [4]) was “Not Active” throughout. Moreover, the Ki entry in assay [1] is on record as “Not Active”.
Regarding `CC(=O)O[C@@]12CO[C@@H]1C[C@H](O)[C@@]1(C)C(=O)[C@H](O)C3=C(C)[C@@H](OC(=O)[C@H](O)[C@@H](NC(=O)OC(C)(C)C)c4ccccc4)C[C@@](O)([C@@H](OC(=O)c4ccccc4)[C@H]21)C3(C)C.O.O.O` [DOCETAXEL], the IC50 entry (in assay [1]; in assay [2] (cho-k1); against Melanocortin receptor 4; in assay [3] (cho-k1); in assay [4]) was “Not Active” in each case. Further, the Ki entry in assay [1] is “Not Active”.
Turning to `CNCCc1ccccn1` [BETAHISTINE], the IC50 result (in assay [1]; at Melanocortin receptor 4; in assay [3] (cho-k1); in assay [4]) was “Not Active” each time. The Ki result in assay [1] is reported as “Not Active”.
In the case of `COc1cc2nc(N3CCN(C(=O)C4COc5ccccc5O4)CC3)nc(N)c2cc1OC` (configuration not stated) [DOXAZOSIN], the half-maximal inhibitory concentration (IC50) entry (in assay [1]; against Melanocortin receptor 4; in assay [3] (cho-k1); in assay [4]) was “Not Active” in each case. In assay [1], the Ki result is given as “Not Active”.
In the case of `Clc1cccc(Cl)c1NC1=NCCN1` [CLONIDINE], the IC50 entry (in assay [1]; in assay [2] (cho-k1); on Melanocortin receptor 4; in assay [3] (cho-k1); in assay [4]) was “Not Active” in each case. Further, in assay [1], the Ki result is listed as “Not Active”.
As for `C[C@H](CS)C(=O)N1CCC[C@H]1C(=O)O` [CAPTOPRIL], the IC50 entry (in assay [1]; in assay [2] (cho-k1); against Melanocortin receptor 4; in assay [3] (cho-k1); in assay [4]) was “Not Active” throughout. Besides, the Ki entry in assay [1] is given as “Not Active”.
For the compound `CC(C)(Oc1ccc(Cl)cc1)C(=O)O` [CLOFIBRIC ACID], the IC50 entry (in assay [1]; in assay [2] (cho-k1); at Melanocortin receptor 4; in assay [3] (cho-k1); in assay [4]) was “Not Active” in each case. The Ki result in assay [1] is “Not Active”.
For `O=C1CC[C@@H](N2C(=O)c3ccccc3C2=O)C(=O)N1`, the IC50 entry (in assay [1]; in assay [2] (cho-k1); at Melanocortin receptor 4; in assay [3] (cho-k1); in assay [4]) was “Not Active” throughout. Moreover, the Ki result in assay [1] is “Not Active”.
